Assay results taken from patent publication US20160101194A1, “SMART® Medication Adherence Formulation, Method, Device and System for Topical, Vaginal or Rectal Routes of Administration” (University of Florida Research Foundation, Incorporated, priority 2013, published 2016).
Blank lines part the entries; values can stand above or below the compound they belong to.

Legend:
[1] = 40 mg rectal in 3 mL HEC gel
Protocol: The entire contents of the syringe were applied rectally as a bolus. Breath acetone and 2-butanone levels were monitored throughout the experiment by delivering single full breath samples directly into the modified ESI source. Two baseline breath samples were taken immediately prior to application and then at 1-3 min intervals thereafter. The ESI source was operated in positive ion mode. A 0.2% NH4OH:water mobile phase was introduced into the source at a flow rate of 0.1 mL/min during sampling to produce ammonium adducts of the analytes of interest.

[2] = after oral dosing
Protocol: Data shown are mean±SD. *, P<0.05 for a given time point compared to time point 0 min. The arrow denotes time of capsule ingestion. Concentrations less than the level of 1.0 parts-per-billion (ppb) are noted as “<LOD”.

[3] = after vaginal administration with gel; cited from earlier work
[4] = Breath kinetics of exhaled d6-acetone after topical application of d8-isopropanol in carbomer gel; format: in vivo; conditions: 240 mg transdermal in carbomer gel, post application; maximum still not achieved
Protocol: 240 mg of d8-isopropanol was mixed with 3 mL of a carbomer-based aloe gel. This gel was applied to an approximately 20 cm^2 area of the inner left forearm and covered with a Tagaderm occlusive dressing. To further reduce the permeability of the dressing, the transparent section was covered with a small section of teldar polymer prior to use.
(§1) Following application or ingestion, d6-acetone and d7-isopropanol levels were monitored in exhaled breath samples using the LTQ-LCMS. Single full breath samples were administered directly into the modified ESI source at 5 min intervals for ˜4 hours. The ESI source was operated in positive ion mode.

[5] = Breath kinetics of exhaled d6-acetone after oral ingestion of d8-isopropanol; format: in vivo; conditions: post-ingestion
Protocol: Either 100 mg d8-isopropanol or 20 mg d8 isopropanol was delivered orally. For oral dosing, 100 or 20 mg of neat d8-isopropanol were placed in a size 4 licap and the licap was swallowed along with 60-100 mL of water. Following administration of d8-isopropanol, exhaled breath was monitored in real time for the presence of d6-acetone and d7-isopropanol using the Orbitrap LCMS.
as §1

SMILES: CCC(C)O (stereo not shown) [2-butanol]
time to appearance of 2-butanone in breath [1]: 2 to 3 min
2-butanone concentration in breath [2]: 500-1,000 ppb

SMILES: CCC(C)OC(C)=O (stereo not shown) [2-butyl acetate]
parent ester and metabolites observed in breath [3]: observed in breath

SMILES: CCCC(C)OC(C)=O (stereo not shown) [2-pentyl acetate]
parent ester and metabolites observed in breath [3]: observed in breath

time to maximum concentration of d-6 acetone in exhaled breath [4]: > 200 min
time by which D6-acetone levels in exhaled breath began to level out ([5]; 20 mg oral): ≤ 15 min
time by which D6-acetone levels in exhaled breath began to level out ([5]; 100 mg oral): ≤ 15 min
SMILES: [2H]OC([2H])(C([2H])([2H])[2H])C([2H])([2H])[2H] [d8-IPA, d8-isopropanol]
